According to ChEMBL document CHEMBL5291721, “A preclinical secondary pharmacology resource illuminates target-adverse drug reaction associations of marketed drugs” (Nat Commun, 2023):

Tests used:
[1] = target: T1, 5-hydroxytryptamine receptor 3A (Homo sapiens, UniProt P46098); assay type: functional
T1 sequence (P46098 whole entry): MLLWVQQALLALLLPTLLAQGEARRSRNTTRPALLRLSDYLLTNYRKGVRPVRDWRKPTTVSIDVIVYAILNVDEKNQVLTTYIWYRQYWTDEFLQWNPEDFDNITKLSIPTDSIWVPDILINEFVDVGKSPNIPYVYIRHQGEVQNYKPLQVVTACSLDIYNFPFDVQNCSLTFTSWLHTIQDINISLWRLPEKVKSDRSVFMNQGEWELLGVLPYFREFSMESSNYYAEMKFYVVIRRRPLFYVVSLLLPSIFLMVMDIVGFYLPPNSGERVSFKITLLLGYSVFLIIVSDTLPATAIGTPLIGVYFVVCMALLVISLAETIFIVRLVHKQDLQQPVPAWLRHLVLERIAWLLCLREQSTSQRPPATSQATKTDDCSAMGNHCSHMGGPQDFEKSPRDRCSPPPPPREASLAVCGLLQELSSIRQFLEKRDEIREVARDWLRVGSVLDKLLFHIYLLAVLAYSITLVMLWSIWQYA

[2] = target: T2, Alpha-2C adrenergic receptor (Homo sapiens, UniProt P18825); assay type: functional
T2 sequence (P18825 whole entry): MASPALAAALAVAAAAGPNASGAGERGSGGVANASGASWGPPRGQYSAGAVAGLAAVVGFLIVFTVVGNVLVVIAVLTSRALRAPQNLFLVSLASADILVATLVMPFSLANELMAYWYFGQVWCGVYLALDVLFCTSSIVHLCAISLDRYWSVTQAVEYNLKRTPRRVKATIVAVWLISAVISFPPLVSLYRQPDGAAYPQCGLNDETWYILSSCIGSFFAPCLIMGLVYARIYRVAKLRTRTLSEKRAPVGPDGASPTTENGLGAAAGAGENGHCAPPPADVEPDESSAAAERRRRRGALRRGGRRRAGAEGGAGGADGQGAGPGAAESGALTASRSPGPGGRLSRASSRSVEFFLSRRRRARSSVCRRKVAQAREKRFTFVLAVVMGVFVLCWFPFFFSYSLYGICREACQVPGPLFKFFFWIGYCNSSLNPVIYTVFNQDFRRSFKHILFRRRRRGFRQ

[3] = target: Gamma-aminobutyric acid receptor subunit alpha-1 (Rattus norvegicus, UniProt P62813); assay type: functional
Sequence of Gamma-aminobutyric acid receptor subunit alpha-1 (P62813 whole entry): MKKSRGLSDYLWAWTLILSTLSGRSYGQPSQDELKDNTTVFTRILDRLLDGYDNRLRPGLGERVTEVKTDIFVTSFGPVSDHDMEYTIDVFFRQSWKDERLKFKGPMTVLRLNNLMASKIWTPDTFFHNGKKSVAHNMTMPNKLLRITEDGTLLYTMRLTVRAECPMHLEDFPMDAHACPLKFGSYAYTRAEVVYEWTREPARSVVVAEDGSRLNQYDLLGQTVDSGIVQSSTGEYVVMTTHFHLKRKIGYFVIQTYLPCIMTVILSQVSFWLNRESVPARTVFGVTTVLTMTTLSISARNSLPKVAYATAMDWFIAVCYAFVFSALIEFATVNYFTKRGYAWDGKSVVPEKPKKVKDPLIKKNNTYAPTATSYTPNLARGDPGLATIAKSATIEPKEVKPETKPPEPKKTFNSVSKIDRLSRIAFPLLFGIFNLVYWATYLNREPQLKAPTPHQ

D(1A) dopamine receptor = D(1A) dopamine receptor (Homo sapiens, UniProt P21728); assay type: functional, cell-based
Sequence of D(1A) dopamine receptor (P21728 whole entry): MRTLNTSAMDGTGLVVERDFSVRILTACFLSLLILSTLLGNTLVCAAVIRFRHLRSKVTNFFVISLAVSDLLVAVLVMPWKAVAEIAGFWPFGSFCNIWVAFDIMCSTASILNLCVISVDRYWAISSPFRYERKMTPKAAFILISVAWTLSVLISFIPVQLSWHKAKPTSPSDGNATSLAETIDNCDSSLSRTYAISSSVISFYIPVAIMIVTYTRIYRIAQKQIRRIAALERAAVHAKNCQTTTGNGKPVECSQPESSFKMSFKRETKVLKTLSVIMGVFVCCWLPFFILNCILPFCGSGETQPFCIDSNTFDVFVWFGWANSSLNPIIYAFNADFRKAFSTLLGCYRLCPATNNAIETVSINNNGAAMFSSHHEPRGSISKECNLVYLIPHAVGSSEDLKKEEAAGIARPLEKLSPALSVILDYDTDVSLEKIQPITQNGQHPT

[4] = target: T3, Alpha-2A adrenergic receptor (Homo sapiens, UniProt P08913); assay type: functional, cell-based
T3 sequence (P08913 whole entry): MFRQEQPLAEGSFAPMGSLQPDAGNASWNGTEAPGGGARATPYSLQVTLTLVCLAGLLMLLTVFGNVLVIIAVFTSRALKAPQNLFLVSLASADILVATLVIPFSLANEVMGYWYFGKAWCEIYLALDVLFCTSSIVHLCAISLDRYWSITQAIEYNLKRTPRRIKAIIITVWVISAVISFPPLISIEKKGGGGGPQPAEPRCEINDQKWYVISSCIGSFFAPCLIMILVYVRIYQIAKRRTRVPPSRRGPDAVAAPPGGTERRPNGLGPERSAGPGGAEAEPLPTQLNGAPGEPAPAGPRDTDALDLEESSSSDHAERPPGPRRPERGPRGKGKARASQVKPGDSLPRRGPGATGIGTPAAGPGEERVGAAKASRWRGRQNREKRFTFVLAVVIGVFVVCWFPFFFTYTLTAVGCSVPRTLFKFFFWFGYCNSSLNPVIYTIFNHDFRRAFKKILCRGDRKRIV

[5] = target: T4, Equilibrative nucleoside transporter 1 (Homo sapiens, UniProt Q99808)
T4 sequence (Q99808 whole entry): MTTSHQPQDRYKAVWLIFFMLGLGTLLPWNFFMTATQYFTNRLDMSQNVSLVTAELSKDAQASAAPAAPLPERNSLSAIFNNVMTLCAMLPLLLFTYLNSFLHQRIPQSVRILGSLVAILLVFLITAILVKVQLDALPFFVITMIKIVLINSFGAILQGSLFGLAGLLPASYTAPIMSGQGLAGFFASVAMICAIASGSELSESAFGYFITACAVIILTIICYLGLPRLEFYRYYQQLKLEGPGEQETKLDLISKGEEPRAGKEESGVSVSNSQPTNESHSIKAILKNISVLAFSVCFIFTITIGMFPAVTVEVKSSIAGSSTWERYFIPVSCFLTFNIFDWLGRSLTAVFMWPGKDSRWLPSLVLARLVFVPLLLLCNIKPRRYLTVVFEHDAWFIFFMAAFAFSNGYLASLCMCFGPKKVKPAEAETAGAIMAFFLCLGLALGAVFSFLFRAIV

[6] = target: T5, Muscarinic acetylcholine receptor M2 (Homo sapiens, UniProt P08172); assay type: functional, cell-based
T5 sequence (P08172 whole entry): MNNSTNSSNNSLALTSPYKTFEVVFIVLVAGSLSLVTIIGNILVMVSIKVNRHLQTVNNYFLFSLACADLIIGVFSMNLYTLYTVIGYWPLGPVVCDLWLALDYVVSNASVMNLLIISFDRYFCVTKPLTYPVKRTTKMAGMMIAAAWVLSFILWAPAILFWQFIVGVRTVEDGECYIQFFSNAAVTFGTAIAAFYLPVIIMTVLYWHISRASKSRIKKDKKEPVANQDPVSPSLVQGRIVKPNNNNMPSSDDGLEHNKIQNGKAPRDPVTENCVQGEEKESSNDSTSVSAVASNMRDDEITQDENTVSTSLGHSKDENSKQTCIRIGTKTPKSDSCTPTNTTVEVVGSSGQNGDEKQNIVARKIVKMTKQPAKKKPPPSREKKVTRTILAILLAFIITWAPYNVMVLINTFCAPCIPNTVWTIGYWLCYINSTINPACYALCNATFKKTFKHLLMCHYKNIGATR
Note: assay procedure not described here.

Compound | AC50 [1] [µM] | AC50 [2] [µM] | AC50 [3] [µM] | AC50 (D(1A) dopamine receptor) [µM] | AC50 [4] [µM] | AC50 [5] [µM] | AC50 [6] [µM]
Cc1nnc2n1-c1ccc(Cl)cc1C(c1ccccc1Cl)=NC2 [TRIAZOLAM] | > 30 | > 10 | 0.0011 | > 10 | > 10 | > 30 | > 10
COc1ccc(CCNCC(O)COc2cccc(C)c2)cc1OC (stereo not drawn) [BEVANTOLOL] | > 30 | 9.4 | > 10 | > 30 | > 10 | > 30 | > 10
CC1(C)CCC(CN2CCN(c3ccc(C(=O)NS(=O)(=O)c4ccc(NCC5CCOCC5)c([N+](=O)[O-])c4)c(Oc4cnc5[nH]ccc5c4)c3)CC2)=C(c2ccc(Cl)cc2)C1 [VENETOCLAX] |  | 17 |  | > 30 |  |  | 
O=C1C(O)=C([C@H]2CC[C@H](c3ccc(Cl)cc3)CC2)C(=O)c2ccccc21 [ATOVAQUONE] | > 30 | > 30 | > 30 | > 30 | > 30 | > 30 | > 30
COc1ccc2c3c1O[C@H]1[C@@H](O)CC[C@H]4[C@@H](C2)N(C)CC[C@@]341 [DIHYDROCODEINE] | > 30 | > 30 | > 30 | > 30 | > 30 |  | 
Fc1ccc(C(c2ccccc2)(c2ccccc2F)n2ccnc2)cc1 (stereo not drawn) [FLUTRIMAZOLE] | > 30 | > 30 | > 30 | > 30 | > 30 | > 10 | > 30
CC/C(=C(\c1ccccc1)c1ccc(OCCN(C)C)cc1)c1ccccc1 [TAMOXIFEN] | > 30 | > 10 | > 10 |  | > 10 |  | > 10
C[C@H]1COc2c(C3(N)CC3)c(F)cc3c(=O)c(C(=O)O)cn1c23 [PAZUFLOXACIN] | > 30 | > 10 | > 10 | > 10 | > 10 | > 10 | > 10
CC(CC1c2ccccc2CCc2ccccc21)CN(C)C (stereo not drawn) [BUTRIPTYLINE] | > 30 | 6.9 | > 30 | > 30 | > 30 |  | 
NC(=O)OCC(COC(N)=O)c1ccccc1 [FELBAMATE] | > 30 | > 10 | > 10 | > 10 | > 10 | > 10 | > 10
NC(=O)CN1CC(O)CC1=O (stereo not drawn) [OXIRACETAM] | > 30 | > 30 | > 30 | > 30 | > 30 | > 30 | > 30
THIMEROSAL |  |  |  | > 100 |  |  | 
Brc1c(NC2=NCCN2)ccc2nccnc12 [BRIMONIDINE] | > 30 |  | > 30 | > 30 |  | > 30 | > 30
Nc1nc(Cl)nc2c1ncn2[C@H]1C[C@H](O)[C@@H](CO)O1 [CLADRIBINE] | > 30 | > 30 |  | > 30 | > 30 | > 30 | > 30
Cc1cc(C(C)(C)C)c(O)c(C)c1CC1=NCCN1 [OXYMETAZOLINE] | > 30 |  | > 30 | > 30 |  |  | > 30
Clc1ccccc1C(c1ccccc1)(c1ccccc1)n1ccnc1 [CLOTRIMAZOLE] | > 30 |  | > 10 |  |  |  | > 10
C[C@@H]1O[C@@H](O[C@@H]2C=C3CC[C@@H]4[C@H](CC[C@]5(C)[C@@H](c6ccc(=O)oc6)CC[C@]45O)[C@@]3(C)CC2)[C@H](O)[C@H](O)[C@H]1O [PROSCILLARIDIN] | > 30 | > 30 | > 30 | > 30 | > 30 |  | > 30
COc1cccc(C2(O)CCCCC2CN(C)C)c1 (stereo not drawn) [TRAMADOL] | > 30 | > 10 | > 10 | > 10 | > 10 | > 30 | 
Cc1c(OCC(F)(F)F)ccnc1C[S+]([O-])c1nc2ccccc2[nH]1 (stereo not drawn) [LANSOPRAZOLE] | 2.3 | > 10 | > 10 | > 10 | > 10 | > 30 | > 10
C#C[C@]1(O)CC[C@H]2[C@@H]3[C@H](C)CC4=C(CCC(=O)C4)[C@H]3CC[C@@]21C [TIBOLONE] | > 30 | > 30 | 30 | > 30 | > 30 | > 30 | > 30
CC(C)(C)NCC(O)COc1cccc2c1CCC(=O)N2 (stereo not drawn) [CARTEOLOL] | > 30 | > 10 | > 10 | > 10 | > 10 | > 10 | > 10
